Measurements as given in patent EP0888055B1, “HERBICIDAL COMPOSITION AND METHOD OF WEED CONTROL” (Novartis AG, priority 1996, dated 1997).

How the values were obtained:
Maize [1] = test: Pre-emergence test (Example B2), tolerance of useful plant; format: in vivo
Description: (§1) The test plants are sown in plastics pots in standard soil. Directly after sowing the test compounds are applied by spraying, separately or in admixture, in the form of an aqueous suspension of the test compounds (Formulation Example F8, c) and d)) or in the form of an emulsion concentrate (Formulation Example F1, d)) in 500 l of water/ha. The rates of application conform to the optimum concentrations ascertained under field conditions and greenhouse conditions. The test plants are then cultivated in the greenhouse under optimum conditions. After 34 days' (Tables B2 to B5) and 41 days' (Table B6) test duration, the test is evaluated (% action, 100 % = plants have died, 0 % = no phytotoxic action). From 61 to 80 % (especially from 81 to 100 %) phytotoxicity indicates good to very good herbicidal action in weeds; from 0 to 15 % (especially from 0 to 5 %) phytotoxicity indicates good to very good tolerance in useful plants.

Sesbania = test: Pre-emergence test (Example B2); format: in vivo; conditions: 34 days
Description: (§2) The expected herbicidal action E for a given combination of two herbicides can be calculated as follows (see COLBY, S.R., "Calculating synergistic and antagonistic response of herbicide combinations", Weeds 15, pages 20-22, 1967): E = X +(Y • (100 - X))/(100) [formula]
(§3) In the above formula: X = percentage growth inhibition in the case of treatment with the compound of formula A at a rate of application of p kg per hectare compared with the untreated control (= 0 %). Y = percentage herbicidal action in the case of treatment with one of the mixing partners at a rate of application of q kg per hectare compared with the untreated control. E = Expected herbicidal action (percentage herbicidal action compared with the untreated control) after treatment with the compounds of formulae A and the mixing partners at a rate of application of p + q kg of active ingredient per hectare.
as §1
(§4) Test plants: abutilon, bidens, euphorbia, ipomoea, sesbamia, xanthium, rottboellia, sida, Sorghum bicolor.

Rottboellia = test: Pre-emergence test (Example B2); format: in vivo
Description: as §2, §3, §1, §4

Ipomoea = test: Pre-emergence test (Example B2); format: in vivo
Description: as §2, §3, §1, §4

Euphorbia = test: Pre-emergence test (Example B2); format: in vivo
Description: as §2, §3, §1, §4

Bidens = test: Pre-emergence test (Example B2); format: in vivo; conditions: 34 days
Description: as §2, §3, §1, §4

Sida = test: Pre-emergence test (Example B2); format: in vivo
Description: as §2, §3, §1, §4

Abutilon = test: Pre-emergence test (Example B2); format: in vivo
Description: as §2, §3, §1, §4

Sorghum bic. = test: Pre-emergence test (Example B2); format: in vivo, Sorghum bicolor; conditions: 8 g active ingredient/ha, 41 days
Description: as §2, §3
The test plants are sown in plastics pots in standard soil. Directly after sowing the test compounds are applied by spraying, separately or in admixture, in the form of an aqueous suspension of the test compounds (Formulation Example F8, c) and d)) or in the form of an emulsion concentrate (Formulation Example F1, d)) in 500 l of water/ha. […] After 34 days' (Tables B2 to B5) and 41 days' (Table B6) test duration, the test is evaluated (% action, 100 % = plants have died, 0 % = no phytotoxic action). […]

Brachiaria [2] = test: Pre-emergence test (Example B2); format: in vivo; conditions: 60 g active ingredient/ha, 34 days
Description: as §2, §3, §1

Echinochloa = test: Post-emergence test (Example B1); format: in vivo; conditions: 24 days
Description: as §2, §3
(§5) The test plant seeds are grown to the 4- to 6-leaf stage under greenhouse conditions in plastics pots. The culture substrate used is a standard soil. At the 4- to 6-leaf stage the herbicides are applied separately and in admixture to the test plants. The test compounds are applied in the form of an aqueous suspension (Formulation Example F8, c)) in 500 l of water/ha. The rates of application conform to the optimum concentrations ascertained under field conditions and greenhouse conditions. Evaluation of the tests is carried out after 24 days. The following linear scale is used as a measure (% action): • 100 % = plants have died • 50 % = moderate action • 0 % = no phytotoxic action (as untreated control).
(§6) Test plants: brachiaria, cyperus, digitaria, echinochloa, panicum.

Brachiaria [3] = test: Post-emergence test (Example B1); format: in vivo; conditions: 24 days
Description: as §2, §3, §5, §6

Digitaria = test: Post-emergence test (Example B1); format: in vivo; conditions: 24 days
Description: as §2, §3, §5, §6

Panicum = test: Post-emergence test (Example B1); format: in vivo; conditions: 24 days
Description: as §2, §3, §5, §6

Cyperus = test: Post-emergence test (Example B1); format: in vivo; conditions: 24 days
Description: as §2
In the above formula: X = percentage growth inhibition in the case of treatment with the compound of formula A at a rate of application of p kg per hectare compared with the untreated control (= 0 %). Y = percentage herbicidal action in the case of treatment with one of the mixing partners at a rate of application of q kg per hectare compared with the untreated control.
as §5, with “days.” for “days. The following linear scale is used as a measure (% action): • 100 % = plants have died • 50 % = moderate action • 0 % = no phytotoxic action (as untreated control).”
as §6

Xanthium = test: Pre-emergence test (Example B2); format: in vivo; conditions: 34 days
Description: as §2, §3, §1, §4

Maize [4] = test: Breakdown in treated useful plants; conditions: after application of the compositions; especially maize; compared with metolachlor
[5] = 250 g active ingredient/ha, 34 days
[6] = 500 g active ingredient/ha, 34 days
[7] = 1000 g active ingredient/ha, 34 days
[8] = 8 g active ingredient/ha, 41 days
[9] = 15 g active ingredient/ha, 34 days
[10] = 15 g active ingredient/ha, 41 days
[11] = 30 g active ingredient/ha, 34 days
[12] = 60 g active ingredient/ha, 34 days
[13] = 60 g active ingredient/ha, 41 days
[14] = 30 g active ingredient/ha, 41 days
[15] = 125 g active ingredient/ha, 34 days

CCc1cccc(C)c1N(C(=O)CCl)C(C)COC (racemic) [Met.rac., metolachlor]
Herbicidal activity, Useful plant: Maize (Maize [1]; [5]): 0%
Herbicidal activity, Useful plant: Maize (Maize [1]; [6]): 0%
Herbicidal activity, Useful plant: Maize (Maize [1]; [7]): 0%
Herbicidal activity, Weed: Sesbania (Sesbania; 1000 g active ingredient/ha): 60%
Herbicidal activity, Weed: Rottboellia (Rottboellia; [7]): 0%
Herbicidal activity, Weed: Ipomoea (Ipomoea; [7]): 0%
Herbicidal activity, Weed: Euphorbia (Euphorbia; [6]): 0%
Herbicidal activity, Weed: Bidens (Bidens; 1000 g active ingredient/ha): 30%
Herbicidal activity, Weed: Sida (Sida; [5]): 0%
Herbicidal activity, Weed: Sida (Sida; [6]): 50%
Herbicidal activity, Weed: Abutilon (Abutilon; [6]): 20%
Herbicidal activity, Weed: Abutilon (Abutilon; [7]): 20%

C=CCOC(=O)C(C)(C)OC(=O)c1cc(-n2c(=O)cc(C(F)(F)F)n(C)c2=O)ccc1Cl [A]
Herbicidal activity, Useful plant: Maize (Maize [1]; [8]): 0%
Herbicidal activity, Useful plant: Maize (Maize [1]; [9]): 0%
Herbicidal activity, Useful plant: Maize (Maize [1]; [10]): 0%
Herbicidal activity, Useful plant: Maize (Maize [1]; [11]): 10%
Herbicidal activity, Useful plant: Maize (Maize [1]; [12]): 10%
Herbicidal activity, Useful plant: Maize (Maize [1]; [13]): 40%
Herbicidal activity, Weed: Sorghum bic. (Sorghum bic.): 0%
Herbicidal activity, Weed: Brachiaria (Brachiaria [2]): 60%
Herbicidal activity, Weed: Echinochloa (Echinochloa; 100 g active ingredient/ha): 15%
Herbicidal activity, Weed: Echinochloa (Echinochloa; 200 g active ingredient/ha): 45%
Herbicidal activity, Weed: Brachiaria (Brachiaria [3]; 100 g active ingredient/ha): 10%
Herbicidal activity, Weed: Brachiaria (Brachiaria [3]; 200 g active ingredient/ha): 15%
Herbicidal activity, Weed: Digitaria (Digitaria; 50 g active ingredient/ha): 85%
Herbicidal activity, Weed: Digitaria (Digitaria; 100 g active ingredient/ha): 90%
Herbicidal activity, Weed: Digitaria (Digitaria; 200 g active ingredient/ha): 90%
Herbicidal activity, Weed: Panicum (Panicum; 50 g active ingredient/ha): 50%
Herbicidal activity, Weed: Panicum (Panicum; 200 g active ingredient/ha): 70%
Herbicidal activity, Weed: Cyperus (Cyperus; 50 g active ingredient/ha): 50%
Herbicidal activity, Weed: Cyperus (Cyperus; 100 g active ingredient/ha): 60%
Herbicidal activity, Weed: Sesbania (Sesbania; 60 g active ingredient/ha): 50%
Herbicidal activity, Weed: Xanthium (Xanthium; 15 g active ingredient/ha): 0%
Herbicidal activity, Weed: Xanthium (Xanthium; 30 g active ingredient/ha): 0%
Herbicidal activity, Weed: Xanthium (Xanthium; 60 g active ingredient/ha): 20%
Herbicidal activity, Weed: Rottboellia (Rottboellia; [14]): 80%
Herbicidal activity, Weed: Rottboellia (Rottboellia; [12]): 30%
Herbicidal activity, Weed: Rottboellia (Rottboellia; [13]): 70%
Herbicidal activity, Weed: Ipomoea (Ipomoea; [11]): 20%
Herbicidal activity, Weed: Ipomoea (Ipomoea; [14]): 0%
Herbicidal activity, Weed: Ipomoea (Ipomoea; [12]): 30%
Herbicidal activity, Weed: Euphorbia (Euphorbia; [9]): 0%
Herbicidal activity, Weed: Euphorbia (Euphorbia; [10]): 85%
Herbicidal activity, Weed: Euphorbia (Euphorbia; [11]): 90%
Herbicidal activity, Weed: Bidens (Bidens; 15 g active ingredient/ha): 20%
Herbicidal activity, Weed: Bidens (Bidens; 30 g active ingredient/ha): 30%
Herbicidal activity, Weed: Bidens (Bidens; 60 g active ingredient/ha): 90%
Herbicidal activity, Weed: Sida (Sida; [8]): 40%
Herbicidal activity, Weed: Sida (Sida; [9]): 80%
Herbicidal activity, Weed: Abutilon (Abutilon; [8]): 50%
Herbicidal activity, Weed: Abutilon (Abutilon; [9]): 20%
Herbicidal activity, Weed: Abutilon (Abutilon; [10]): 80%
Herbicidal activity, Weed: Abutilon (Abutilon; [11]): 40%
breakdown in the useful plants treated (Maize [4]): broken down more rapidly

CCNc1nc(Cl)nc(NC(C)C)n1 [Atra, atrazine]
Herbicidal activity, Useful plant: Maize (Maize [1]; [15]): 0%
Herbicidal activity, Useful plant: Maize (Maize [1]; [5]): 0%
Herbicidal activity, Useful plant: Maize (Maize [1]; [6]): 0%
Herbicidal activity, Weed: Xanthium (Xanthium; 250 g active ingredient/ha): 0%
Herbicidal activity, Weed: Xanthium (Xanthium; 500 g active ingredient/ha): 95%
Herbicidal activity, Weed: Ipomoea (Ipomoea; [15]): 0%
Herbicidal activity, Weed: Ipomoea (Ipomoea; [5]): 70%
Herbicidal activity, Weed: Euphorbia (Euphorbia; [15]): 0%
Herbicidal activity, Weed: Bidens (Bidens; 125 g active ingredient/ha): 60%
Herbicidal activity, Weed: Abutilon (Abutilon; [15]): 0%
Herbicidal activity, Weed: Abutilon (Abutilon; [6]): 98%
